Measured values reported in patent US10201558B2, “Compositions of selenoorganic compounds and methods of use thereof” (Alltech, Inc., priority 2014, dated 2019).
Entries after “also recorded” stand apart in the source; their conditions may differ.

Legend:
Format in all cases: cell-based, human
[1] = tested on: GSK3B; test: Western blot of total GSK3B protein in IMR-32 cells; details: 150 ppb, 24 hours
Description: (§1) IMR-32 cells were seeded on 6-well plates and then treated with control and various compounds for 6 hours and 24 hours, as described above. After treatments, cells were rinsed with ice-cold PBS and lysed in ice-cold RIPA buffer containing complete proteinase and phosphatase inhibitors (Thermo-Fisher Scientific, Waltham, Mass.) on ice for 30 min Cell lysates were collected using a cell scraper and transfer pipette and then centrifuged at 12000×g for 30 min at 4° C. to remove the DNA pellet and obtain the protein extract. Protein levels in the supernatant of these cell lysates were determined using the Pierce Micro-BCA protein assay kit (Thermo Scientific-Piece Biotechnology, Rockford, Ill.) according to the manufacturer's protocol […]
(§2) Positive signals on the membrane blots were detected using Amersham's enhanced chemiluminescence (ECL) Western Blotting Prime Detection reagents (GE healthcare Lifescience, Pittsburgh, Pa.). Images of these luminescence signals on the membrane blots were captured using the LI-COR Odyssey Fc Image system (Lincoln, Nebr.). […] Protein band densities in the Western blots were determined using the Li—COR Image studio software or NIH ImageJ software, and then normalized by ACTB protein level in each sample. […]

[2] = tested on: NICASTRIN; test: QRT-PCR of NICASTRIN mRNA in IMR-32 cells (normal, control KD, FOXO4 KD)
Description: IMR-32 cells were cultured on 12-well plates for 24 hours and then incubated with FOXO4 siRNA lentiviruses (SC-29650V, Santa Cruz) or control siRNA lentiviruses (sc-108080, Santa Cruz) in the presence of Polybrene (5 μg/ml, Santa Cruz) for 24 hours according to the manufacturer's protocol. These lentiviral siRNA-transfected cells were amplified in normal media for 3 days and then incubated with puromycin for 9-14 days to obtain the stable Control KD (stably transfected with the control siRNAs) and FOXO4KD (stably transfected with Foxo4 siRNAs) cells. These control and Foxo4 KD cells were subjected to cell survival, mitochondrial potential and RNA analysis.
(§3) Human IMR-32 cells were seeded on gelatinized 6-well (6.5×10^5 cells/well) or 24-well (1.3×10^5 cells/well) plates. Cells were treated with control (0 ppb) or various compounds for 6 hours or 24 hours. Total RNA from these cells was isolated using Trizol (Invitrogen) according to the manufacturer's protocol, and then incubated with DNase I to remove any potential contaminated genomic DNA. Then RNA samples were subjected to real-time PCR analysis using the Applied-Bioscience's RT kit and predesigned Taqman probes (Invitrogen), as described previously (Lan et al EMBO J 2003). The mRNA levels of UCP1, UCP2, UCP3, SLC25A27 (UCP4), SLC25A14 (UCP5), PSEN1, Nicastrin, GSK3B, MAPK11-14, PPARG, APOE, RCAN1, RCAN1.1, G6PC, INSR, IGF1R and FOXO4 were measured. Three to six samples were analyzed in each treatment group. Data were normalized by Actin B (ACTB) or Glyceraldehyde Phosphate Dehydrogenase (GAPDH) mRNA levels in each sample and are presented as mean±SEM of 3-6 samples.
(§4) RNA samples were extracted, purified, and subjected to real-time PCR analysis using Applied-Bioscience's RT kit and Taqman probes (Invitrogen) as described previously in Example 4. Protein samples were also prepared from cell lysates and western blot analysis was performed as previously described in Example 4. Data are presented as mean±SEM of 3 protein samples and 4 RNA samples per group. The relative mRNA and protein expression levels of PSEN1 and NICASTRIN, were measured. All primary antibodies were purchased from Cell Signaling Inc., Beverly, Mass.
Expression of genes such as Nicastrin and GSK3B (FIGS. 3A, 3C, 3G-3I, 4A, 4F-4H) which are associated with early-onset AD pathogenesis was attenuated by Compound C. […] Therefore, GSK3B and Nicastrin likely are two direct downstream target genes of FOXO4 in neuronal cells in humans.

[3] = tested on: UCP5 (SLC25A14); test: QRT-PCR of UCP5 (SLC25A14) mRNA in IMR-32 cells; details: 150 ppb, 6 hours
Description: as §3

[4] = tested on: RCAN1.1; test: Western blot of RCAN1 (RCAN1.1) protein in IMR-32 cells; details: 150 ppb, 24 hours
Description: as §1, §2
The ability of selenium compounds to regulate RCAN1 expression in IMR-32 cells was also assessed. […]

[5] = tested on: p38; test: Western blot of total p38 protein in IMR-32 cells; details: 150 ppb, 24 hours
Description: as §1, §2

[6] = tested on: PSEN1; test: QRT-PCR of PSEN1 mRNA in IMR-32 cells
Description: as §3, §4

[7] = tested on: PSEN2; test: PSEN2 expression in IMR-32 cells
[8] = tested on: NICASTRIN; test: Western blot of NICASTRIN protein in IMR-32 cells; details: 150 ppb, 24 hours
Description: as §1, §2

[9] = tested on: UCP2; test: QRT-PCR of UCP2 mRNA in IMR-32 cells; details: 150 ppb, 6 hours
Description: as §3

Compound	total GSK3B protein levels [1]	NICASTRIN mRNA expression ([2]; FOXO4KD cells, 75 ppb and 150 ppb, 24 hours)	NICASTRIN mRNA expression, dose-response study ([2]; IMR-32 cells, 150 ppb, 24 hours)	NICASTRIN mRNA expression ([2]; IMR-32 cells, 6 hours)	NICASTRIN mRNA expression ([2]; IMR-32 cells, 24 hours)	NICASTRIN mRNA expression ([2]; control KD cells, 75 ppb and 150 ppb, 24 hours)	UCP5 (SLC25A14) mRNA expression [3]	RCAN1.1 protein levels [4]	Total p38 protein levels [5]	PSEN1 mRNA expression, dose response ([6]; 75 ppb and 150 ppb, 24 hours)	PSEN1 mRNA expression ([6]; 150 ppb, 6 hours and 24 hours)	PSEN2 expression [7]	NICASTRIN protein levels [8]	UCP2 mRNA expression [9]	PSEN1 mRNA expression ([6]; 24 hours)
C[Se]C[C@H]1O[C@@H](n2cnc3c(N)ncnc32)C(O)C1O (stereo in doubt) [Compound C, 5′-deoxy-5′-methylselenoadenosine]	visibly decreased; also recorded: statistically significant decrease	not significantly altered	significantly inhibit	trend towards reduced	significant decrease	inhibited	trend towards decreased; also recorded: trend towards reduced	decrease	visibly decreased; also recorded: statistically significant decrease	Significant dose-dependent decreases	significantly reduced	no downregulation	significant reduction	significant decrease; also recorded: inhibited	–
C[Se]C[C@H](NC(=O)CC[C@H](N)C(=O)O)C(=O)O [Compound E, γ-L-glutamyl-Se-methyl-L-selenocysteine]	not observed; also recorded: no significant difference	–	–	–	stimulated	–	did not have any effect	not Compound E	not observed; also recorded: not Compound E	–	–	no downregulation	trend towards reduced	did not have any effect	stimulated
